From ChEMBL document CHEMBL1145498, “A systematic interaction map of validated kinase inhibitors with Ser/Thr kinases” (Proc Natl Acad Sci U S A, 2007)

Assays:
[1] = target: Serine/threonine-protein kinase pim-3 (Homo sapiens) (UniProt Q86V86)
[2] = target: Mitogen-activated protein kinase 6 (Homo sapiens) (UniProt Q16659)
[3] = target: T1, Serine/threonine-protein kinase Nek2 (Homo sapiens) (UniProt P51955)
T1 sequence (whole entry): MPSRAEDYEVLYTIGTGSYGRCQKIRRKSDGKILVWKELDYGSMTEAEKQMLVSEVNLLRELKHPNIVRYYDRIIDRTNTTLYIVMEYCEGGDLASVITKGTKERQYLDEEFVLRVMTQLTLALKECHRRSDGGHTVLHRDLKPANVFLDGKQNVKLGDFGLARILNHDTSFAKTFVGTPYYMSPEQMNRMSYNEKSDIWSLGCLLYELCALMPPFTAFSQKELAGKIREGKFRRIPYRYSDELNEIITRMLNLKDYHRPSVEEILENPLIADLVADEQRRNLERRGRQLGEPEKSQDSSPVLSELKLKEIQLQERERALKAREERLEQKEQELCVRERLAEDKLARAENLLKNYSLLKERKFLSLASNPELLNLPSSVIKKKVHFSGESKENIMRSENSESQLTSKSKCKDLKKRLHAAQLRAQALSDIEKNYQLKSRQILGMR

[4] = target: T2, Serine/threonine-protein kinase 17A (Homo sapiens) (UniProt Q9UEE5)
T2 sequence (whole entry): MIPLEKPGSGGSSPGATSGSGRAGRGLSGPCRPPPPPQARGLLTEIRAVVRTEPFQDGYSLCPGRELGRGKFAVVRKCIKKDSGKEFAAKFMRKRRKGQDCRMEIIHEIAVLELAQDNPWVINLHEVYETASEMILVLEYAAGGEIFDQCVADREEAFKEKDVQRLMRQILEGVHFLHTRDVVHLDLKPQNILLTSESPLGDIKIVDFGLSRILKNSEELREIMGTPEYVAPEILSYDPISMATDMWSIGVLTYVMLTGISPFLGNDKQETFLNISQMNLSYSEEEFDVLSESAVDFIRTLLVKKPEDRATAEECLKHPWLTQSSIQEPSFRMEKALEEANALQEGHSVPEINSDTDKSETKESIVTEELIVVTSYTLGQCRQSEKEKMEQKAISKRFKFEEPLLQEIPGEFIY

[5] = target: Serine/threonine-protein kinase PAK 4 (Homo sapiens) (UniProt O96013)
Sequence of Serine/threonine-protein kinase PAK 4 (Homo sapiens) (O96013 whole entry, looked up): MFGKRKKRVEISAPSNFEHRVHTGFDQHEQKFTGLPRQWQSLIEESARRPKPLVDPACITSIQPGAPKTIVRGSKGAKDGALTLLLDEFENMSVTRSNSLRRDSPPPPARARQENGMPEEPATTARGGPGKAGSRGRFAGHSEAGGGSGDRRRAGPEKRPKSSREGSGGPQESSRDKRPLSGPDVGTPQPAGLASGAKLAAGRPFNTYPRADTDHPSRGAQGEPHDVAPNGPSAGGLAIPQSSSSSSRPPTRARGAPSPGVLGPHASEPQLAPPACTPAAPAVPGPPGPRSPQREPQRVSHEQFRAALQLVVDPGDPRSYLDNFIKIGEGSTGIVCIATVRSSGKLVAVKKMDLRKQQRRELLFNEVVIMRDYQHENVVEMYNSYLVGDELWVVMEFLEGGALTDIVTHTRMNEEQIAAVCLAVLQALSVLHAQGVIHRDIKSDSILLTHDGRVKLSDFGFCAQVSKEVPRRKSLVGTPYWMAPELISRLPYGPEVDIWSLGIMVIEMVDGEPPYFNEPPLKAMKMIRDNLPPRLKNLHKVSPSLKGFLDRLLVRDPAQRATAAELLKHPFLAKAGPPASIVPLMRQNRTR

[6] = target: Cyclin-dependent kinase 16 (Homo sapiens) (UniProt Q00536)
Sequence of Cyclin-dependent kinase 16 (Homo sapiens) (Q00536 whole entry, canonical isoform): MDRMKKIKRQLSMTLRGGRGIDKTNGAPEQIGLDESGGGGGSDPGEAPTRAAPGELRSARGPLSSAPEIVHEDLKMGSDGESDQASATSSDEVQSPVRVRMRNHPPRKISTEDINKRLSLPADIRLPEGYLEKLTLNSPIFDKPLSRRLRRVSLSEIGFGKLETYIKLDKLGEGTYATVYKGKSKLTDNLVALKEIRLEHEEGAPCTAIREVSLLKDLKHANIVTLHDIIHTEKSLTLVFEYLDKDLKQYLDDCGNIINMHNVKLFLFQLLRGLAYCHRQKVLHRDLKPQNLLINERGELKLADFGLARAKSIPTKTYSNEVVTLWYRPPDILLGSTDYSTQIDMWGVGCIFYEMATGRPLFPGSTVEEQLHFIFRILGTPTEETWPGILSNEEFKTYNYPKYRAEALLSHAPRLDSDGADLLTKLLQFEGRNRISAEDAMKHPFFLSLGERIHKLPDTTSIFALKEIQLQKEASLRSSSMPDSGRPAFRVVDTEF

[7] = target: Casein kinase I isoform gamma-1 (Homo sapiens) (UniProt Q9HCP0)
[8] = target: Serine/threonine-protein kinase pim-1 (Homo sapiens) (UniProt P11309)
Sequence of Serine/threonine-protein kinase pim-1 (Homo sapiens) (P11309 whole entry, looked up): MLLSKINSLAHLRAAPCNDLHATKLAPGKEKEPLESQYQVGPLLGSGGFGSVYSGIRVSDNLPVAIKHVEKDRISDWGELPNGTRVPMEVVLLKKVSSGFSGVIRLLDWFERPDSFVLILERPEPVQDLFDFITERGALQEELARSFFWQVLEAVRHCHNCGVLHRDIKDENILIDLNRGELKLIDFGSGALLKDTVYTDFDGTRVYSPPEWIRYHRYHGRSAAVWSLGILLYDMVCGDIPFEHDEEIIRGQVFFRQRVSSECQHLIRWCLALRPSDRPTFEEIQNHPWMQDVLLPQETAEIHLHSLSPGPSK

[9] = target: Serine/threonine-protein kinase VRK2 (Homo sapiens) (UniProt Q86Y07)
Sequence of Serine/threonine-protein kinase VRK2 (Homo sapiens) (Q86Y07 whole entry): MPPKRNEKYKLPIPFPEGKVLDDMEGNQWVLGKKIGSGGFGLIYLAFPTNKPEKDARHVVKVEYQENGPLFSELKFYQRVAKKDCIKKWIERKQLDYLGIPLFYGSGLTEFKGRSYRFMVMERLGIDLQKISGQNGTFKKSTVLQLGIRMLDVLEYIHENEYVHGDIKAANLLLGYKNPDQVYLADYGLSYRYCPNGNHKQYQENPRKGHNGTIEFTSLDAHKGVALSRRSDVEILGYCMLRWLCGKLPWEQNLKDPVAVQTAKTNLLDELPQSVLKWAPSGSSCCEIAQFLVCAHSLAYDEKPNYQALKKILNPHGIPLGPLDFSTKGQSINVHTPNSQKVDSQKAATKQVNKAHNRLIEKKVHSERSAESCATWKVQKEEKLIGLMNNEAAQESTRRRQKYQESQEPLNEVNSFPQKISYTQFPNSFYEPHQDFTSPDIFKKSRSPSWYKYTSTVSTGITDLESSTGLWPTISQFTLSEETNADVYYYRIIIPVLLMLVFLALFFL

[10] = target: STE20-like serine/threonine-protein kinase (Homo sapiens) (UniProt Q9H2G2)
[11] = target: Casein kinase I isoform gamma-2 (Homo sapiens) (UniProt P78368)
Sequence of Casein kinase I isoform gamma-2 (Homo sapiens) (P78368 whole entry, looked up, canonical isoform): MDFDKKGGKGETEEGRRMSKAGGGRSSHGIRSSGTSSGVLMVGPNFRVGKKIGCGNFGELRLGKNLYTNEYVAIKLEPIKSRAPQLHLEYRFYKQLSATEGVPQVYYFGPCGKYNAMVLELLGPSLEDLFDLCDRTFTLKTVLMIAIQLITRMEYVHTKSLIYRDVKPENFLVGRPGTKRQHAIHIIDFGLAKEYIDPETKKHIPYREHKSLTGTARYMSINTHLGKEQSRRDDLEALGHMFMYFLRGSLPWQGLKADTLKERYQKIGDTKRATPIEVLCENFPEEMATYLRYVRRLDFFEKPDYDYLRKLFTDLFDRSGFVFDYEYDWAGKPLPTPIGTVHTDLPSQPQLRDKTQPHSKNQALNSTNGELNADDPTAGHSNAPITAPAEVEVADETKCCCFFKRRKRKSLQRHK

[12] = target: Serine/threonine-protein kinase 10 (Homo sapiens) (UniProt O94804)
Sequence of Serine/threonine-protein kinase 10 (Homo sapiens) (O94804 whole entry, looked up): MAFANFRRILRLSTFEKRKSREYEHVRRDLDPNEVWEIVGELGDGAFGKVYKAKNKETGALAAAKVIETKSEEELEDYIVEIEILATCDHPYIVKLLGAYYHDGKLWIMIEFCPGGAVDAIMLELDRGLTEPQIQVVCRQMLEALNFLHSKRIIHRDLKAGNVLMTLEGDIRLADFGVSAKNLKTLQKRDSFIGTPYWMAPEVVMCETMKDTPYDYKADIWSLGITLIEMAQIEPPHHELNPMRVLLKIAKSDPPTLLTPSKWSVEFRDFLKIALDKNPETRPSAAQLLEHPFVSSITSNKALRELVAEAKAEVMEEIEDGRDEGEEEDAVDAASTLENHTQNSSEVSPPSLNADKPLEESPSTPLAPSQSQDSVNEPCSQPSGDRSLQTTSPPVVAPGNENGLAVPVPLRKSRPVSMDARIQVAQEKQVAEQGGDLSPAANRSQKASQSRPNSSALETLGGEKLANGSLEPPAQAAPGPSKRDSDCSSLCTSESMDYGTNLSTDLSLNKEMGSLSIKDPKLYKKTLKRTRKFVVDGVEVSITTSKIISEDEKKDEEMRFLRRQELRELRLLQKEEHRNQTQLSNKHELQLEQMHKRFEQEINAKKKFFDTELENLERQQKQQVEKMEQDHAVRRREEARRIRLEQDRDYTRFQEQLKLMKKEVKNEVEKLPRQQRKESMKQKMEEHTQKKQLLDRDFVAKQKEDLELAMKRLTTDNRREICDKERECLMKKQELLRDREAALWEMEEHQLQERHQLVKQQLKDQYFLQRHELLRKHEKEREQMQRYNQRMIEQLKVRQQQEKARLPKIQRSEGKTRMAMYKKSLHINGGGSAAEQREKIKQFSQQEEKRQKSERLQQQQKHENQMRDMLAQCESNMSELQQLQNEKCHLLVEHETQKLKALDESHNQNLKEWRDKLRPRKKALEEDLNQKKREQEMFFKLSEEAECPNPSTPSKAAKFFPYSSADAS

[13] = target: T3, Serine/threonine-protein kinase VRK3 (Homo sapiens) (UniProt Q8IV63)
T3 sequence (whole entry): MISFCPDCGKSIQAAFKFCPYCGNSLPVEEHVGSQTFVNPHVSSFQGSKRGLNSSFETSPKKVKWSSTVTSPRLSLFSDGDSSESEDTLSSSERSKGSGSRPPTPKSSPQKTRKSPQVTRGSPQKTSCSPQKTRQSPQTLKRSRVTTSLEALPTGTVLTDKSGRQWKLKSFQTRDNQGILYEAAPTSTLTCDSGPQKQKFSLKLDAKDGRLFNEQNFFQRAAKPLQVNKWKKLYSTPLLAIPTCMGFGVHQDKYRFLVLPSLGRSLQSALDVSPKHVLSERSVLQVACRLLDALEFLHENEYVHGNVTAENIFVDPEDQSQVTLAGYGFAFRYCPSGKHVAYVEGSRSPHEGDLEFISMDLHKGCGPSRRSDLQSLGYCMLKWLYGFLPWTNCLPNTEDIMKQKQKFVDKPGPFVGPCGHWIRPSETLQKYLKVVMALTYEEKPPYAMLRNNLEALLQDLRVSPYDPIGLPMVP

[14] = target: Serine/threonine-protein kinase 25 (Homo sapiens) (UniProt O00506)
[15] = target: Cyclin-dependent kinase 2 (Homo sapiens, UniProt P24941)
[16] = target: Ribosomal protein S6 kinase alpha-3 (Homo sapiens) (UniProt P51812)
[17] = target: Serine/threonine-protein kinase pim-2 (Homo sapiens, UniProt Q9P1W9)
Sequence of Serine/threonine-protein kinase pim-2 (Q9P1W9 whole entry, looked up): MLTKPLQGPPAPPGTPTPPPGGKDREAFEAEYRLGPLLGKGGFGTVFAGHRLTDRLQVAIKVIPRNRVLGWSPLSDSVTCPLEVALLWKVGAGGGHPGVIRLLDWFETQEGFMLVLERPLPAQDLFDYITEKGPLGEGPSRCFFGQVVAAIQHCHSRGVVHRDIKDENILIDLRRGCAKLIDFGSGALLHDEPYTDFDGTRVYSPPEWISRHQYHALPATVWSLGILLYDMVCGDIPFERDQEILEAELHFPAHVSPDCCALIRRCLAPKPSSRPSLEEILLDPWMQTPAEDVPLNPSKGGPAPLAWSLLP

Sequence of Mitogen-activated protein kinase 6 (Homo sapiens) (Q16659 whole entry): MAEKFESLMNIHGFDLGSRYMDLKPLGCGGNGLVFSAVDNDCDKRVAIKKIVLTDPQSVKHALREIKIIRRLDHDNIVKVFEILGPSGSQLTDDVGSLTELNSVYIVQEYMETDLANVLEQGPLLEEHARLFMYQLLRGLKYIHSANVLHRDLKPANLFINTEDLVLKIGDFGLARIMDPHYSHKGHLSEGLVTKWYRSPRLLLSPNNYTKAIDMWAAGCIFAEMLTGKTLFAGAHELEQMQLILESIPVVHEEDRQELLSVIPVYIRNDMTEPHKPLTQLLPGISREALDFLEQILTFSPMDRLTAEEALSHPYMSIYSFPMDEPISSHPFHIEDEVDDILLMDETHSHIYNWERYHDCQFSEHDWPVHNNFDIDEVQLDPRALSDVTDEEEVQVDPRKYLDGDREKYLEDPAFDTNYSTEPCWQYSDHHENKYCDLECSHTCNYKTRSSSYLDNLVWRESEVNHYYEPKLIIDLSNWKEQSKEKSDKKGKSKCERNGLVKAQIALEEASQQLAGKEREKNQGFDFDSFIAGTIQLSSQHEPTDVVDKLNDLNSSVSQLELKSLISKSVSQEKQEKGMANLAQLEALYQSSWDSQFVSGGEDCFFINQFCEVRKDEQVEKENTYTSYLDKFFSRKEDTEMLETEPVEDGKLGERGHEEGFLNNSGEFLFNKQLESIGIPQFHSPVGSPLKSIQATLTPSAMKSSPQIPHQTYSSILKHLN

Structure (SMILES) | ΔTm [1] | ΔTm [2] | ΔTm [3] | ΔTm [4] | ΔTm [5] | ΔTm [6] | ΔTm [7] | ΔTm [8] | ΔTm [9] | ΔTm [10] | ΔTm [11] | ΔTm [12] | ΔTm [13] | ΔTm [14] | ΔTm [15] | ΔTm [16] | ΔTm [17]
CCOc1cc(/C=C(\C#N)C(N)=O)cc(CSc2ccccc2)c1O | 1.5 °C | 0.1 °C | 0.3 °C | 0.6 °C | -0.5 °C | -0.5 °C | 0.2 °C | -0.1 °C | 0.1 °C | 0.5 °C | 0.7 °C | 1.1 °C | -0.6 °C | 0.6 °C | 0.8 °C | 2.1 °C | 0.1 °C
Oc1ccc(-c2nc(-c3ccc(F)cc3)c(-c3ccncc3)[nH]2)cc1 | 1.3 °C | 0.2 °C | 0.2 °C | 1 °C | -0.3 °C | -0.4 °C | 1 °C | -1.4 °C | 0.7 °C | 4.4 °C | 0.8 °C | 4.4 °C | 0.3 °C | 0.5 °C | 0.4 °C | 0.6 °C | 0.8 °C
O=Nc1c(-c2c(O)[nH]c3ccccc23)[nH]c2ccccc12 | 6.4 °C | 0.1 °C | 2.5 °C | 8.9 °C | 1.7 °C | 3.2 °C | -0.3 °C | 2 °C | 3.1 °C | 3.9 °C | 1.3 °C | 4.2 °C | -0.8 °C | 3.8 °C | 6.6 °C | 5.5 °C | 0 °C
CN(C)CC1CCn2c(c(C3=C(c4c[nH]c5ccccc45)C(=O)NC3=O)c3ccccc32)C1 (stereo not given) | 3.4 °C | 0.6 °C | 1 °C | 5.3 °C | 1.5 °C | 3 °C | 0.5 °C | 4.9 °C | 0.7 °C | 4.2 °C | 0.3 °C | 4.1 °C | 0.6 °C | 0.4 °C | 2.5 °C | 7.4 °C | 1.7 °C
O=c1ccc2ccc(O)c(O)c2o1 [DAPHNETIN] | 0.8 °C | 0.2 °C | 0.7 °C | 0.4 °C | 0 °C | -0.6 °C | 0 °C | 0.2 °C | -0.1 °C | 0.1 °C | 0.1 °C | -0.5 °C | -0.1 °C | -0.5 °C | 0.7 °C | 0 °C | 0.7 °C
Nc1ncnc2c1c(I)cn2[C@@H]1O[C@H](CO)[C@@H](O)[C@H]1O | 1.5 °C | -0.1 °C | 0.4 °C | 2.8 °C | 1.1 °C | 0.1 °C | 2.5 °C | 1.1 °C | 0.1 °C | 4.2 °C | 3.7 °C | 4.7 °C | 0.1 °C | 4.2 °C | 2.9 °C | 1.7 °C | 1 °C
CN[C@@H]1CC2O[C@@](C)([C@@H]1OC)n1c3ccccc3c3c4c(c5c6ccccc6n2c5c31)C(=O)NC4 | 17.7 °C | 1 °C | 2.8 °C | 17.4 °C |  |  | 1.9 °C |  | 2 °C | 20.1 °C |  | 24.8 °C | 0.3 °C | 9.6 °C |  | 12.3 °C | 
OC[C@H]1O[C@@H](n2cnc3cc(Cl)c(Cl)cc32)[C@H](O)[C@@H]1O | 3.1 °C | -0.1 °C | 0.5 °C | 2.1 °C | -0.9 °C | -0.3 °C | 0.7 °C | 3.2 °C | 0 °C | 0.1 °C | 0.6 °C | -0.7 °C | -0.2 °C | 0 °C |  | 1.3 °C | 2.6 °C
COc1cc2ncnc(Nc3cccc(O)c3)c2cc1OC | 2 °C | 0.1 °C | 0.2 °C | 3.7 °C | 1 °C | -0.6 °C | 1.3 °C | 0 °C | 0.9 °C | 3.2 °C | 1.5 °C | 4.2 °C |  | 0.6 °C |  | 0.9 °C | 0.6 °C
CC(C)(C)c1nc2c3ccc(F)cc3c3c(=O)[nH]ccc3c2[nH]1 | 7.2 °C | 0.2 °C | 0.7 °C | 13.7 °C | 1.2 °C | 0 °C | 0.5 °C | 3.7 °C | 1.8 °C | 1.8 °C | 0.7 °C | 6.4 °C | 0.2 °C | 2.9 °C | 1.2 °C |  | 5.1 °C
N#C/C(=C1/Nc2ccccc2S1)c1ccnc(NCCc2cccnc2)n1 | 10.9 °C | 2 °C | 1.9 °C | 4.7 °C | 1.3 °C | 5.8 °C | 3.7 °C | 10 °C | 1.8 °C | 1.8 °C | 2.5 °C | 1.4 °C | 0.9 °C | 0.8 °C | 6.3 °C |  | 7.4 °C
COC(=O)[C@]1(O)C[C@@H]2O[C@@]1(C)n1c3ccccc3c3c4c(c5c6ccccc6n2c5c31)C(=O)NC4 (single isomer, unassigned) | 5.8 °C | 0.3 °C | 1.9 °C | 17.5 °C | 3.9 °C | 0.8 °C | 0.6 °C | 3.7 °C | -0.2 °C | 6.3 °C | 0.1 °C | 10.9 °C | -0.2 °C | 4.4 °C |  | 7.3 °C | 3.8 °C
COc1ccc(CNC(=O)Nc2ncc([N+](=O)[O-])s2)cc1 | 1.5 °C | 1 °C | 0.6 °C | 0.5 °C | 0.4 °C | -0.8 °C | 0.7 °C | 1.1 °C | 0.6 °C | 0.7 °C | 0.1 °C | 1.1 °C | -0.5 °C | 0.1 °C | 0.8 °C |  | 0.2 °C
C[C@@H](N)[C@H]1CC[C@H](C(=O)Nc2ccncc2)CC1 | 1.3 °C | -0.1 °C | -0.1 °C | 1.3 °C | 1.1 °C | -0.7 °C | 0.6 °C | 0 °C | 0.5 °C | 0.2 °C | 0.6 °C | 1.2 °C | 0.2 °C | 0 °C | 0.5 °C |  | 0.6 °C
Nc1nc(Nc2ccc(S(N)(=O)=O)cc2)nn1C(=S)Nc1c(F)cccc1F | 1.9 °C | 2.1 °C | 2.5 °C | 12.6 °C | 6.3 °C | 10 °C |  | 0.4 °C | 2 °C | 12.1 °C | 4.9 °C | 15.5 °C | 0.9 °C | 12 °C | 15.9 °C | 9.6 °C | 0.6 °C
